Measurements: article PMC7046553, “Backbone Cyclization and Dimerization of LL-37-Derived Peptides Enhance Antimicrobial Activity and Proteolytic Stability” (Frontiers in Microbiology, 2020)
Where no end group is shown, it is not given here.

Assays:
[1] = test system: Candida albicans ATCC 90028; settings: ATCC 90028, 5 h
Method: (§1) The three bacterial strains: Escherichia coli ATCC 25922, Pseudomonas aeruginosa ATCC 27853 Staphylococcus aureus ATCC 29213 as well as the fungal strain Candida albicans ATCC 90028 derived from clinical wound infections were obtained from the Department of Clinical Bacteriology at Lund University Hospital.
(§2) Antimicrobial activities of the peptides were evaluated using the two-step microdilution assay ([Strömstedt et al., 2017]), which is designed for testing AMPs without activity-inhibiting components. Briefly, the microbial suspension was washed twice with 10 mM Tris buffer (set to pH 7.4 at 37°C). 96-well plates (U-shaped, untreated polystyrene) were prepared with peptide 2-fold serial dilutions in Tris buffer. The culture density was quantified by OD600, diluted in Tris buffer and 50,000 cells aliquoted to each well in the 96-well plate to a final 100 μl volume. After 5 h of aerobic incubation at 37°C, 5 μl of 20% TSB medium was added to each well (resulting in 1% TSB) and the plates were re-incubated. Growth-inhibition was monitored when controls produced pellet sizes of 2 mm in diameter (close to growth saturation), which equates to 5, 8, 10, and 12 h for E. coli, S. aureus, P. aeruginosa, and C. albicans, respectively. […] The MIC-values in Table 1, are medians from triplicate experiments, while the data presented in the Figure 2 are the same values relative to that of KR-12.

[2] = test system: Escherichia coli ATCC 25922; settings: ATCC 25922, 5 h
Method: as §1, §2

[3] = Liposome leakage assay, bacterial liposomes; parameters: species or system E. coli
Method: Membrane disruption was assayed by liposome leakage. […] E. coli and Saccharomyces cerevisiae membrane lipids were reconstituted into large unilamellar vesicles, trapping a self-quenching fluorescent marker.
Polar lipid extract from E. coli, and S. cerevisiae (Avanti Polar Lipids, Alabaster, AL-US) were used, the latter supplemented with ergosterol (Sigma-Aldrich) at a 7:3 molar ratio. In brief, dry lipid films were deposited on round-bottom flask walls and re-suspended in Tris buffer containing of 100 mM 5(6)-carboxyfluorescein. Multilamellar structures and polydispersity were reduced by repeated extrusion through 100-nm polycarbonate membranes. Un-trapped carboxyfluorescein was removed by gel separation. Membrane permeability was measured by monitoring carboxyfluorescein efflux from the liposomes to the external low concentration environment, resulting in loss of self-quenching and an increased fluorescence signal. The leakage experiments were performed on a 96-well plate format. […] EC50-values are calculated from sigmoidal dose-response curves of leakage percentage as a function of the peptide concentration (log10).

[4] = Liposome leakage assay, fungal liposomes; parameters: species or system S. cerevisiae; settings: 50% leakage, 45 min incubation, 37°C; read-out: EC50 fung. (liposome leakage)
Method: FIGURE 3 Peptide induced liposome leakage. Bacterial liposomes based on E. coli polar lipid extract (A,B), and fungal liposomes of S. cerevisiae polar lipid extract and ergosterol (7:3) (C), were monitored for fluorescent marker leakage over 45 min of incubation with peptides. (A) Compares membrane disrupting efficacy at the 45 min mark for the parent peptide, monomer, lysine substitutions and dimerization, (B) effects of linker length, monomer directionality and backbone cyclization, (C) effect on KR-12 directionality and dimerization on a fungal liposome system. […] Results are means from triplicate experiments with standard deviations.
The liposome production and the liposome leakage assay were performed similar to what has previously been described ([Strömstedt et al., 2016]). […] Membrane permeability was measured by monitoring carboxyfluorescein efflux from the liposomes to the external low concentration environment, resulting in loss of self-quenching and an increased fluorescence signal. […] The effect of each peptide concentration on liposome integrity was monitored for 45 min, at which point the leakage had largely subsided. […] EC50-values are calculated from sigmoidal dose-response curves of leakage percentage as a function of the peptide concentration (log10).

Human type A RBCs = experiment: Hemolysis assay; assay type: cell-based
Method: Peptides were dissolved in water and serially diluted in PBS to give 20 μl test solutions in a 96-well U-bottomed microtiter plate (Nunc). Human type A RBCs (red blood cells) were washed with PBS and centrifuged at 1500 g for 60 s in a microcentrifuge several times until a clear supernatant was obtained. A 0.25% suspension of washed RBCs in PBS (100 μl) was added to the peptide solutions. The plate was incubated at 37°C for 1 h and centrifuged at 150 g for 5 min. Aliquots of 100 μl were transferred to a 96-well flat-bottomed microtiter plate (Falcon) and the absorbance was measured at 405 nm with an automatic Multiskan Ascent plate reader (Labsystems). The amount of hemolysis was calculated as the percentage of maximum lysis (1% Triton X-100 control) after adjusting for minimum lysis (PBS control). Synthetic melittin (Sigma) was used for comparison. The hemolytic dose necessary to lyse 50% of the RBCs (HD50) was calculated using the regression constant from the linear portion of the hemolytic titration curve (GraphPad Prism software).

[5] = test system: Escherichia coli ATCC 25922; parameters: method as in Gunasekera et al., 2018; settings: ref Gunasekera et al., 2018; cited from earlier work
[6] = test system: Pseudomonas aeruginosa ATCC 27853; parameters: method as in Gunasekera et al., 2018; settings: ref Gunasekera et al., 2018; cited from earlier work
[7] = test system: Staphylococcus aureus ATCC 29213; parameters: method as in Gunasekera et al., 2018; settings: ref Gunasekera et al., 2018; cited from earlier work
[8] = test system: Candida albicans ATCC 90028; parameters: method as in Gunasekera et al., 2018; settings: ref Gunasekera et al., 2018; cited from earlier work
Escherichia coli = test system: Escherichia coli; parameters: method as in Wang, 2008; settings: ref Wang, 2008; cited from earlier work
[9] = test system: human lymphoma cell line U-937 GTB; settings: cited from earlier work

Sequence: KRIVQRIKDFLR [KR-12]
- MIC fung. [1]: 10 µM
- MIC bact. [2]: 2.5 µM
- EC50 ([3]; 50% leakage, 45 min incubation, 37°C, read-out: EC50 bact. (liposome leakage)): ~25 µM
- fold higher concentration than LL-37 required to reach 50% leakage ([3]; E. coli liposomes): 38 fold
- EC50 [4]: 0.95 µM
- HC50 (hemolysis) (Human type A RBCs): > 80 µM
- MIC against Escherichia coli [5]: 2.5 µM
- MIC against Pseudomonas aeruginosa [6]: 10 µM
- MIC against Staphylococcus aureus [7]: 10 µM
- MIC against Candida albicans [8]: 10 µM
- MIC against Escherichia coli (Escherichia coli): 40 µM
- loss of cell viability ([9]; at the maximum concentration of 80 μM, ref Gunasekera et al., 2018): 13%
- IC50 [9]: > 80 µM
